How the values were obtained:
[1] = target: human STING ligand-binding domain (hSTING-LBD) (Homo sapiens, UniProt Q86WV6); assay: BLI Kd
[2] = target: T1, mouse STING ligand-binding domain (mSTING-LBD) (Mus musculus, UniProt Q3TBT3); assay: BLI
T1 sequence (Q3TBT3 146-370): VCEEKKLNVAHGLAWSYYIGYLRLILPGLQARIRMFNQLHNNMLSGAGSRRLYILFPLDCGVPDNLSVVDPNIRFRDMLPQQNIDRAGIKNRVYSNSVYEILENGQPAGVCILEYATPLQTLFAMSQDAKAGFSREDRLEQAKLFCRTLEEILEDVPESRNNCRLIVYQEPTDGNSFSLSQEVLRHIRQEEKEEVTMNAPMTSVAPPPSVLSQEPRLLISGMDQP

human STING ligand-binding domain (hSTING-LBD), sequence (Q86WV6 155-343): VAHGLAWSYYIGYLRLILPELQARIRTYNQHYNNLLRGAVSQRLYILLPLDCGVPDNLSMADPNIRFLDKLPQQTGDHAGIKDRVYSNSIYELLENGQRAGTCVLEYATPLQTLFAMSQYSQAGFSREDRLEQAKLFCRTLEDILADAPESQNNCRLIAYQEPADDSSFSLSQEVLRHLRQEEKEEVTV

Kd [1]: 12.9 ± 0.4 µM
Kd [2]: 17 ± 0.5 µM
Structure (SMILES): C=CCc1ccc(O)c(-c2ccc(O)c(CC=C)c2)c1 [honokiol]

From paper PMC12296492 (Cell Reports Methods, 2025)
